Ends that are not written are not given here.
B1: HC gp-39 peptide 56 (residues printed as 352-377) (peptide)
peptide: WALDLDDFQGSFCGQD
notes: A 16-mer starting at 352 would end at 367, so this is probably a misprint

Columns and labels:
[1] = biological target: T1, DR4 (DRB1*0401) molecules (Homo sapiens, UniProt P01903+P01911, A100K/A169T/F76Y/I96L/K127E/L162R/M171V/N62H/P40V/Q125Y/R42H/S133A/S149N/S66Y/V115G/V209L/W38E); assay: Peptide HLA-DR binding assay (semi-quantitative competition binding); conditions: for IC50: competition with biotinylated marker peptide HA 309 Y→F, pH5.0, 44 hr RT
T1 construct: molecules were purified from the homozygous EBV-transformed human B lymphoblastoid cell lines Huly138IC2 and BM92 using the mAb; endogenous in cells
Experimental: DR4 (DRB1*0401) and DR4 (DRB1*0404) molecules were purified from the homozygous EBV-transformed human B lymphoblastoid cell lines Huly138IC2 and BM92 using the mAb t243, directed against a monomorphic determinant on the DR-complex (Lampson, L. A and R. Levy (1980), J. Immunol. 125:293 299).
The peptide binding studies were performed using a semi-quantitative competition binding assay (Joosten et al 1994, Int. Immunol. 6, 751). Briefly, purified HLA-DR molecules (30 nM DR4(DRB1*0401) or 15 nM DR4 (DRB1*0404) were incubated at pH5.0 with 50 nM biotinylated marker peptide (HA 309y→F) and a concentration range of competitor peptide in a final volume of 25 μl binding buffer (PBS containing 0.01% […], 0.05% NP-40, 5% DMSO, 1 mM AEBSF, 1 mM N-ethyl maleimide, 8 mM EDTA and 10 μm pepstatin A). After 44 hr of incubation at RT, HLA DR bound marker peptide was separated from free marker peptide using a 96 well vacuum dotblot apparatus (Hybri. dot, BRL) and a nitrocellulose membrane (Hybond ECL, Amersham, UK). The nitrocellulose filters were blocked with 0.5% DNA blocking reagent (Boehringer) in 0.1 M maleic acid, 150 mM NaCl, pH7.5.
After 0.5-1 hr, the filters were washed in PBS, 0.05% Tween 20 (Sigma) and incubated with Strepcavidin-HRPO (Southern Biotechnology) in a 1:10.000 dilution. Biotinylated peptides were detected by enhanced chemiluminescence using a Western Blot ECL kit (Amersham). Exposure of the preflashed films (Hyperfilm-ECL, Amersham) was for 10 min. The spots were analysed by scanning the films and using Image Quant/Excel software for analysis.
The affinity of a given peptide for binding DRB1*0401-encoded molecules was related to competition with the marker peptide. This relative binding affinity was defined as the peptide concentration at which the signal was reduced to 50% (IC50).

[2] = system: PBMC from RA patients and healthy controls carrying the DR4 (DRB1*0401) specificity; assay: Proliferative responses of blood mononuclear cells, RA patients and healthy donors taken together; type: cell-based, human; conditions: individual peptides; any donor
Experimental: (§1) In order to identify T-cell epitopes within HC gp-39, 59 peptides of 16 AA in length, overlapping by 10 AA were tested for their capacity to induce a proliferative response in PBMC from RA patients and healthy controls carrying the DR4 (DRB1*0401) specificity (Table 1).
(§2) PBMC obtained from heparinized venous peripheral blood were isolated by standard centrifugation on a Ficoll-Paque gradient. Cells were cultured in four-fold at a concentration of 1,5×10^5 cells/well in medium supplemented with 10% heat-inactivated, autologous plasma, L-glutamine, 2-ME and antibiotics in flatbottomed microtiter plates. Cells were incubated in medium alone or in the presence of phytohaemagglutinin (PHA) (2:5 μg/ml) to assert cell viability, or in the presence of 10 or 100 μg/ml of the HC gp-39-derived peptides. In several cases, sets of 2 or 3 sequential peptides were tested due to limited PBMC numbers of individual donors. Cultures were incubated in a total volume of 210 μl for 7 days at […] in a humidified atmosphere of 5% CO2. Cultures were pulsed during the last 18 hours with 0.25 μCi ^3H-thymidine ([^3H]TdR). Cells were harvested on glassfiber filters and [^3H] TdR incorporation was measured by gas scintillation (Packard Matrix 96 βcounter). Only peptides inducing a proliferative response at both 10 and 100 μg/ml were considered to contain a T-cell epitope. Responses were defined positive if stimulation index values (SI, antigen-specific counts per 5 min (cp5 m)/background cp5 m) exceeded or equaled 2.
(§3) T-cell reactivity to HC gp-39-derived peptide as analyzed by measuring the PBMC proliferative response in DR4 (DRB1*0401)-positive RA patients and healthy donors. Proliferative responses were tested in autologous plasma. In Table IIIA and IIIB the results of 7 experiments are presented showing the responses of RA patients (Table IIIA) and the responses of healthy donors (Table IIIB) to 59 overlapping sequences derived from HC gp-39.

[3] = system: PBMC from healthy donors carrying the DR4 (DRB1*0401) specificity; assay: Peptide-induced proliferative responses of PBMC from healthy donors; type: cell-based, human; conditions: for Responses induced only in healthy donors: healthy donors 230, 235
Experimental: Peripheral blood samples from 5 healthy donors carrying the DR4(DRB1*0401) specificity were obtained with informed consent and included in this study as a control.
as §1, §2, §3

[4] = system: PBMC from RA patients carrying the DR4 (DRB1*0401) specificity; assay: Peptide-induced proliferative responses of PBMC from RA patients; type: cell-based, human; conditions: for Peptide-induced proliferative response of PBMC, RA 272: RA patient 272, 0401, R; for Responses to peptides observed in RA patients only: compared with healthy donors; for Peptide-induced proliferative response of PBMC, RA 286: RA patient 286, 0401, R; for Peptide-induced proliferative response of PBMC, RA 259: RA patient 259, 0401, R; for Peptide-induced proliferative response of PBMC, RA 276: RA patient 276, 0401, R
Experimental: This study included 7 DR4(DRB1*0401)-positive patients diagnosed as suffering from RA according to the ARA criteria (Arnett et al., (1988), Arthritis Rheum. 31, 315). Peripheral blood samples were obtained with informed consent. There were five women and two men aged 46-79 years. Their duration of disease ranged from over 10 to over 30 years. Three out of 7 patients had at least 3 swollen joints. […] All patients were on medication: Four patients were treated with prednisone, three patients received anti-rheumatic agents and 4 patients were treated with NSAID's as well.
as §1, §2, §3

[5] = biological target: T2, DR4 (DRB1*0401) molecules purified from the homozygous EBV-transformed human B lymphoblastoid cell line … (human, UniProt P01903 26-254); assay: competition binding assay on purified DR4(DRB1*0401)
T2 construct: mature; That form is inferred from purification of the native complex

[6] = 100 and 10 microgram/ml, 7 days, 3H-thymidine incorporation

Row | Molecule | Relative affinity of binding to DR4 (DRB1*0401), in words [1] | IC50 ([1]; Table IIIB) [nM] | Responses to the individual peptides (PBMC proliferation), identifying T-cell epitopes [2] | Peptide-induced proliferative response of PBMC, HD 235 ([3]; healthy donor 235, 0401, R, 100 and 10 microgram/ml, 7 days, 3H-thymidine incorporation) | Responses induced only in healthy donors [3] | IC50 ([1]; Table IIIA) [nM] | Peptide-induced proliferative response of PBMC, RA 272 [4, 6] | Response of PBMC from RA patient 272 to individual peptides, in words [4] | Responses to peptides observed in RA patients only [4] | Peptide-induced proliferative response of PBMC, RA 286 [4, 6] | Peptide-induced proliferative response of PBMC, RA 259 [4, 6] | Peptide-induced proliferative response of PBMC, RA 262 ([4]; RA patient 262, 0401, R, 100 and 10 microgram/ml, 7 days, 3H-thymidine incorporation) | Peptide-induced proliferative response of PBMC, RA 276 [4, 6] | Peptide-induced proliferative response of PBMC, HD 230 ([3]; healthy donor 230, 0401, R, 100 and 10 microgram/ml, 7 days, 3H-thymidine incorporation) | Peptide-induced proliferative response of PBMC, RA 191 ([4]; RA patient 191, 0401, R, 100 and 10 microgram/ml, 7 days, 3H-thymidine incorporation) | binding result [5]
1 | GRSFTLASSETGVGAP [compound 41, GRSFTLASSETGVGAP] | relatively high affinity | < 1000 | observed in one or more donors | pos (positive responses to both 100 and 10 microgram/ml of peptide or sets of peptides (SI>2 were regarded positive)) | induced only responses in healthy donors |  |  |  |  |  |  |  |  |  |  | 
2 | LAGAMVWALDLDDFQG [compound 55, LAGAMVWALDLDDFQG] | relatively high affinity |  | observed in one or more donors |  |  | < 1000 | pos (positive responses to both 100 and 10 microgram/ml of peptide or sets of peptides (SI≧2 were regarded positive)) | appeared to respond | observed in RA patients only |  |  |  |  |  |  | 
3 | MGIPTFGRSFTLASSE [compound 40, MGIPTFGRSFTLASSE] | relatively high affinity |  | observed in one or more donors |  |  | < 1000 | pos (positive responses to both 100 and 10 microgram/ml of peptide or sets of peptides (SI≧2 were regarded positive)) | appeared to respond | observed in RA patients only | pos (positive responses to both 100 and 10 microgram/ml of peptide or sets of peptides (SI≧2 were regarded positive)) |  |  |  |  |  | 
4 | MLRLGAPASKLVMGIP [compound 38, MLRLGAPASKLVMGIP] | intermediate relative affinity |  | observed in one or more donors |  |  | 10000 to 100000 | pos (positive responses to both 100 and 10 microgram/ml of peptide or sets of peptides (SI≧2 were regarded positive)) | appeared to respond | observed in RA patients only | pos (positive responses to both 100 and 10 microgram/ml of peptide or sets of peptides (SI≧2 were regarded positive)) | pos (positive responses to both 100 and 10 microgram/ml of peptide or sets of peptides (SI≧2 were regarded positive)) | pos (positive responses to both 100 and 10 microgram/ml of peptide or sets of peptides (SI≧2 were regarded positive)) | pos (positive responses to both 100 and 10 microgram/ml of peptide or sets of peptides (SI≧2 were regarded positive)) |  |  | 
5 | PNLKTLLSVGGWNFGS [compound 12, PNLKTLLSVGGWNFGS] | relatively high affinity | < 1000 | observed in one or more donors |  | induced only responses in healthy donors |  |  |  |  |  |  |  |  | pos (positive responses to both 100 and 10 microgram/ml of peptide or sets of peptides (SI>2 were regarded positive)) |  | 
6 | SPLFRGQEDASPDRFS [compound 34, SPLFRGQEDASPDRFS] | relatively high affinity |  | observed in one or more donors |  |  | < 1000 | pos (positive responses to both 100 and 10 microgram/ml of peptide or sets of peptides (SI≧2 were regarded positive)) | appeared to respond | observed in RA patients only |  |  |  |  |  |  | 
7 | YTSWSQYREGDGSCFP [peptide 2, YTSWSQYREGDGSCFP] | intermediate relative affinity |  | observed in one or more donors |  |  | 10000 to 100000 | pos (positive responses to both 100 and 10 microgram/ml of peptide or sets of peptides (SI≧2 were regarded positive)) | appeared to respond | observed in RA patients only | pos (positive responses to both 100 and 10 microgram/ml of peptide or sets of peptides (SI≧2 were regarded positive)) | pos (positive responses to both 100 and 10 microgram/ml of peptide or sets of peptides (SI≧2 were regarded positive)) |  | pos (positive responses to both 100 and 10 microgram/ml of peptide or sets of peptides (SI≧2 were regarded positive)) |  | pos (positive responses to both 100 and 10 microgram/ml of peptide or sets of peptides (SI≧2 were regarded positive)) | 
8 | B1 |  |  |  |  |  |  |  |  |  |  |  |  |  |  |  | binds

Source: US6881824B1, “Peptides suitable for use in antigen specific immunosuppressive therapy” (Akzo Nobel N.V., priority 1996, dated 2005)
